Data reported in patent publication US20260028354A1, “TETRAHYDRONAPHTHALENE DERIVATIVES AS ESTROGEN RECEPTOR DEGRADERS” (REGENT OF THE UNIVERSITY OF MICHIGAN, priority 2022, published 2026).
pIC50: −log10 of the molar value. Where two headings read alike, the source gives them in different places.

Key:
[1] = tested on: MCF-7 cells; assay: CellTiter-Glo (CTG) cell proliferation assay in MCF-7 cells; type: cell-based; details: Homo sapiens, MCF7, 144 h, MCF-7 cell proliferation, Day 6
Text: CellTiter-Glo® (CTG) Assays in MCF-7 and T47D Cell Lines.
In vitro Assay: MCF-7 and T47D CTG assay

[2] = molecular target: ER in T47D cells (Homo sapiens (Human), UniProt P03372); assay: In-cell Western (ICW) ER degradation assay in T47D cells; type: cell-based; details: 16 hrs treatment; for DC50: ER degradation; for Dmax: maximal ER degradation, read-out: T47D Dmax
[3] = molecular target: ER in MCF-7 cells (Homo sapiens (Human), UniProt P03372); assay: In-cell Western (ICW) ER degradation assay in MCF-7 cells; type: cell-based; details: for DC50: MCF-7, ER degradation, read-out: MCF7 DC50
[4] = molecular target: CRBN/DDB1 (Homo sapiens (Human), UniProt Q96SW2); type: binding; details: His tagged CRBN+DDB1, Cy5-labeled Thalidomide probe, one hour; read-out: CRBN HTRF IC50
Description: The binding potency was determined using HTRF assay technology (Perkin Elmer). Compounds were serially diluted in DMSO and […] volume was transferred to white 384-well plate.

[5] = MCF7, MCF-7, maximal ER degradation, 16 hrs treatment, read-out: MCF7 Dmax
[6] = MCF7, read-out: MCF7 Dmax, MCF-7, maximal ER degradation, 16 hrs treatment

Chain of ER in MCF-7 cells (P03372 whole entry): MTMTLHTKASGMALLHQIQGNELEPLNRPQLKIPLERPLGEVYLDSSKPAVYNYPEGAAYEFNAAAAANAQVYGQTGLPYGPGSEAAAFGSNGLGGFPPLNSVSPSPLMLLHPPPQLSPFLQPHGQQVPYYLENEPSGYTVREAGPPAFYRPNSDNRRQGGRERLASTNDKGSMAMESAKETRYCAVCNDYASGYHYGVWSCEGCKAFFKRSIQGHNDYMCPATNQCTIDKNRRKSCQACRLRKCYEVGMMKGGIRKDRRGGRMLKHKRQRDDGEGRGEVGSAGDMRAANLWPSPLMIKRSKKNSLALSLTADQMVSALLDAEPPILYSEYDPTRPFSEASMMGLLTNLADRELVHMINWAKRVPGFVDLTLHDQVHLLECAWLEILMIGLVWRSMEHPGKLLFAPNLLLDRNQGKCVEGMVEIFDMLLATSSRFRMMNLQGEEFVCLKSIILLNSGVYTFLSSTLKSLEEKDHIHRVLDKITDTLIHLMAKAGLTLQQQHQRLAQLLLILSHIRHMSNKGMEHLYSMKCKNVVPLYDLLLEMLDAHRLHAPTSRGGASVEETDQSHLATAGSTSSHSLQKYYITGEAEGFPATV
Chain of ER in T47D cells (P03372 whole entry): as above
Chain of CRBN/DDB1 (Q96SW2 whole entry, species assumed): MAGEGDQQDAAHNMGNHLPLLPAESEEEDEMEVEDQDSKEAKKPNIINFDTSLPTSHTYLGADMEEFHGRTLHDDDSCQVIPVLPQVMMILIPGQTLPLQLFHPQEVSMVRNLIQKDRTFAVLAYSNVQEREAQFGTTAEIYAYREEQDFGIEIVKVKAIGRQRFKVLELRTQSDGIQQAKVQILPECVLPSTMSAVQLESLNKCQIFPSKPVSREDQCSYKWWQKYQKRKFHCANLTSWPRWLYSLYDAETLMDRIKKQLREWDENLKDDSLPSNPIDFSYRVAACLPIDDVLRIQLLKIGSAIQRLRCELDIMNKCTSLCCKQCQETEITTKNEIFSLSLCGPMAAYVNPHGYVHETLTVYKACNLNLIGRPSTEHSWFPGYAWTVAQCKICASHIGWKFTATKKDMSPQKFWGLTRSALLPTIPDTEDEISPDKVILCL
Chain of CRBN/DDB1 (Q16531 whole entry partner, species assumed): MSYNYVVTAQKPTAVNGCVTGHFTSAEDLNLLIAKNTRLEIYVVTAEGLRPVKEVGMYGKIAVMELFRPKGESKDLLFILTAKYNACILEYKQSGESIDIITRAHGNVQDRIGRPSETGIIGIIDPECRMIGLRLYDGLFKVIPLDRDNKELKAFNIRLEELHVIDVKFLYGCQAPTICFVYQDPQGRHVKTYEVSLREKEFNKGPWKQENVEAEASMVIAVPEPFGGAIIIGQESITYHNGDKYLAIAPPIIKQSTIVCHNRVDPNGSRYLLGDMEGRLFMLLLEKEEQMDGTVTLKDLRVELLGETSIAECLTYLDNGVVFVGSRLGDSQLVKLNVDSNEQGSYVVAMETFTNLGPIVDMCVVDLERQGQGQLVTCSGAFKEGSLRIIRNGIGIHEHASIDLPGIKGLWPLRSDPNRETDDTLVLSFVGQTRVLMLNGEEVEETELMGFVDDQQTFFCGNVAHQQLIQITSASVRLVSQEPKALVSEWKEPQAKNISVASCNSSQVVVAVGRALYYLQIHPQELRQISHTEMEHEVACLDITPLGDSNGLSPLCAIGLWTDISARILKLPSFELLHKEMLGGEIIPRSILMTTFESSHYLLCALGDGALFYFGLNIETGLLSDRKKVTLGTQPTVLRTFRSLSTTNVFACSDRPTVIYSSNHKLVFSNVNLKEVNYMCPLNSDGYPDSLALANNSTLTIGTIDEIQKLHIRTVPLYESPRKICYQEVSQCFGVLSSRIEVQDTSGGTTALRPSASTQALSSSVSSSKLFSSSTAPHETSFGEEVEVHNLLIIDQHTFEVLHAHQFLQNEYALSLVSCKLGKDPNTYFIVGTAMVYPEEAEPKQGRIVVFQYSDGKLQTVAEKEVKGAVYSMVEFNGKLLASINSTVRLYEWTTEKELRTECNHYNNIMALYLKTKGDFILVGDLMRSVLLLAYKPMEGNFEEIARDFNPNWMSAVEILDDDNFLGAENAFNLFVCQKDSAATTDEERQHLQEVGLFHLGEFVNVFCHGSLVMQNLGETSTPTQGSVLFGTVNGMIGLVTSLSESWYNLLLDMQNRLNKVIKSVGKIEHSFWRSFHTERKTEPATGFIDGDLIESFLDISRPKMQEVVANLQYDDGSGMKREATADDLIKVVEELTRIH

SMILES | pIC50 [1] | DC50 [2] [nM] | Dmax [2] [%] | Dmax [3, 5] [%] | DC50 ([3]; 16 hrs treatment) [nM] | pIC50 [4] | Dmax [3, 6] [%]
COc1cc(N2CCC3(CC2)CC(CN2CCN4c5cc6c(cc5OC[C@@H]4C2)C(=O)N([C@H]2CCC(=O)NC2=O)C6)C3)ccc1[C@@H]1c2ccc(O)cc2CC[C@@H]1c1ccccc1 (single isomer, unassigned) [Compound A12] | 7.00 to 8.00 | < 1 | > 75 | > 75 | < 1 | 6.30 to 7.30 | –
O=C1CC[C@@H](Nc2ccc(C3CCN(CC4CCC5(CC4)CN(c4ccc([C@@H]6c7ccc(O)cc7CC[C@@H]6c6ccccc6)cc4)C5)CC3)cc2)C(=O)N1 (single isomer, unassigned) [Compound A65] | 7.00 to 8.00 | < 1 | > 75 | 50 to 75 | 1 to 10 | 6.30 to 7.30 | –
COc1cc(N2CCC3(CC2)CC(CN2CCC4(CC2)COc2c4cc4c(c2Cl)C(=O)N([C@H]2CCC(=O)NC2=O)C4)C3)c(F)cc1[C@@H]1c2ccc(O)cc2CC[C@@H]1c1ccccc1 [Compound A218, (S)-3-(8-chloro-1′-((7-(2-fluoro-4-((1S,2S)-6-hydroxy-2-phenyl-1,2,3,4-tetrahydro-naphthalen-1-yl)-5-methoxy-phenyl)-7-azaspiro[3.5]nonan-2-yl)methyl)-7-oxo-5,7-dihydro-2H,6H-spiro[furo[2,3-f]isoindole-3,4′-piperidin]-6-yl)piperidine-2,6-dione] | > 8.00 | – | – | – | < 1 | – | > 75
COc1cc(N2CCC3(CC2)CC(CN2CCC4(CC2)COc2c4cc(OC)c4c2CN([C@H]2CCC(=O)NC2=O)C4=O)C3)c(F)cc1[C@@H]1c2ccc(O)cc2CC[C@@H]1c1ccccc1 [Compound A222, (S)-3-(1′-((7-(2-fluoro-4-((1S,2S)-6-hydroxy-2-phenyl-1,2,3,4-tetrahydronaphthalen-1-yl)-5-methoxyphenyl)-7-azaspiro[3.5]nonan-2-yl)methyl)-5-methoxy-6-oxo-6,8-dihydro-2H,7H-spiro[furo[2,3-e]isoindole-3,4′-piperidin]-7-yl)piperidine-2,6-dione] | > 8.00 | – | – | – | < 1 | – | > 75
COc1cc(N2CCC(CCN3CCC4(CC3)COc3c4cc(OC)c4c3CN([C@H]3CCC(=O)NC3=O)C4=O)CC2)c(F)cc1[C@@H]1c2ccc(O)cc2CC[C@@H]1c1ccccc1 [Compound A226, (S)-3-(1′-(2-(1-(2-fluoro-4-((1S,2S)-6-hydroxy-2-phenyl-1,2,3,4-tetrahydronaphthalen-1-yl)-5-methoxyphenyl)piperidin-4-yl)ethyl)-5-methoxy-6-oxo-6,8-dihydro-2H,7H-spiro[furo[2,3-e]isoindole-3,4′-piperidin]-7-yl)piperidine-2,6-dione] | > 8.00 | – | – | – | < 1 | – | > 75
COc1cc(N2CCC3(CC[C@@H](CN4CCC5(CC4)COc4c5cc(C)c5c4CN([C@H]4CCC(=O)NC4=O)C5=O)CO3)CC2)c(F)cc1[C@@H]1c2ccc(O)cc2CC[C@@H]1c1ccccc1 [Compound A227, (S)-3-(1′-(((S)-9-(2-fluoro-4-((1S,2S)-6-hydroxy-2-phenyl-1,2,3,4-tetrahydronaphthalen-1-yl)-5-methoxyphenyl)-1-oxa-9-azaspiro[5.5]undecan-3-yl)methyl)-5-methyl-6-oxo-6,8-dihydro-2H,7H-spiro[furo[2,3-e]isoindole-3,4′-piperidin]-7-yl)piperidine-2,6-dione] | > 8.00 | – | – | – | < 1 | – | > 75
COc1cc(N2CCC(CCN3CCN4c5cc(C)c6c(c5OC[C@H]4C3)CN([C@H]3CCC(=O)NC3=O)C6=O)CC2)c(F)cc1[C@@H]1c2ccc(O)cc2CC[C@@H]1c1ccccc1 [Compound A229, (S)-3-((R)-7-(2-(1-(2-fluoro-4-((1S,2S)-6-hydroxy-2-phenyl-1,2,3,4-tetrahydronaphthalen-1-yl)-5-methoxyphenyl)piper-idin-4-yl)ethyl)-12-methyl-1-oxo-1,3,5,5a,6,7,8,9-octahydro-2H-pyrazino[1′,2′:4,5][1,4]oxazino[2,3-e]isoindol-2-yl)-piperidine-2,6-dione] | 7.00 to 8.00 | – | – | > 75 | < 1 | – | –
COc1cc(N2CCC3(CC[C@H](CN4CCC5(CC4)COc4c5cc(C)c5c4CN([C@H]4CCC(=O)NC4=O)C5=O)CO3)CC2)c(F)cc1[C@@H]1c2ccc(O)cc2CC[C@@H]1c1ccccc1 [Compound A230, (S)-3-(1′-(((R)-9-(2-fluoro-4-((1S,2S)-6-hydroxy-2-phenyl-1,2,3,4-tetrahydronaphthalen-1-yl)-5-methoxyphenyl)-1-oxa-9-azaspiro[5.5]undecan-3-yl)methyl)-5-methyl-6-oxo-6,8-dihydro-2H,7H-spiro[furo[2,3-e]isoindole-3,4′-piperidin]-7-yl)piperidine-2,6-dione] | > 8.00 | – | – | – | < 1 | – | > 75
O=C1CC[C@H](N2Cc3c4c(cc(Cl)c3C2=O)C2(CCN(C[C@H]3CCC5(CCN(c6ccc([C@@H]7c8ccc(O)cc8CC[C@@H]7c7ccccc7)cc6)CC5)OC3)CC2)CO4)C(=O)N1 [Compound A231, (S)-3-(5-chloro-1′-(((R)-9-(4-((1R,2S)-6-hydroxy-2-phenyl-1,2,3,4-tetrahydronaphthalen-1-yl)phenyl)-1-oxa-9-azaspiro[5.5]undecan-3-yl)methyl)-6-oxo-6,8-dihydro-2H,7H-spiro[furo[2,3-e]isoindole-3,4′-pipcridin]-7-yl)piperidine-2,6-dione] | > 8.00 | – | – | – | < 1 | – | > 75
COc1cc(N2CCC3(CC[C@H](CN4CCC5(CC4)COc4c5cc(Cl)c5c4CN([C@H]4CCC(=O)NC4=O)C5=O)CO3)CC2)c(F)cc1[C@@H]1c2ccc(O)cc2CC[C@@H]1c1ccccc1 [Compound A232, (S)-3-(5-chloro-1′-(((R)-9-(2-fluoro-4-((1S,2S)-6-hydroxy-2-phenyl-1,2,3,4-tetrahydronaphthalen-1-yl)-5-methoxyphenyl)-1-oxa-9-azaspiro[5.5]undecan-3-yl)methyl)-6-oxo-6,8-dihydro-2H,7H-spiro[furo[2,3-e]isoindole-3,4′-piperidin]-7-yl)piperidine-2,6-dione] | > 8.00 | – | – | – | < 1 | – | > 75
O=C1CC[C@H](N2Cc3c4c(cc(Cl)c3C2=O)C2(CCN(C[C@@H]3CCC5(CCN(c6ccc([C@@H]7c8ccc(O)cc8CC[C@@H]7c7ccccc7)cc6)CC5)OC3)CC2)CO4)C(=O)N1 [Compound A233, (S)-3-(5-chloro-1′-(((S)-9-(4-((1R,2S)-6-hydroxy-2-phenyl-1,2,3,4-tetrahydronaphthalen-1-yl)phenyl)-1-oxa-9-azaspiro[5.5]undecan-3-yl)methyl)-6-oxo-6,8-dihydro-2H,7H-spiro[furo[2,3-e]isoindole-3,4′-piperidin]-7-yl)piperidine-2,6-dione] | > 8.00 | – | – | – | < 1 | – | > 75
COc1cc(N2CCC3(CC[C@@H](CN4CCC5(CC4)COc4c5cc(Cl)c5c4CN([C@H]4CCC(=O)NC4=O)C5=O)CO3)CC2)c(F)cc1[C@@H]1c2ccc(O)cc2CC[C@@H]1c1ccccc1 [Compound A234, (S)-3-(5-chloro-1′-(((S)-9-(2-fluoro-4-((1S,2S)-6-hydroxy-2-phenyl-1,2,3,4-tetrahydronaphthalen-1-yl)-5-methoxyphenyl)-1-oxa-9-azaspiro[5.5]undecan-3-yl)methyl)-6-oxo-6,8-dihydro-2H,7H-spiro[furo[2,3-e]isoindole-3,4′-piperidin]-7-yl)piperidine-2,6-dione] | > 8.00 | – | – | – | < 1 | – | > 75
COc1cc2c(c3c1C(=O)N([C@H]1CCC(=O)NC1=O)C3)OCC21CCN(C[C@H]2CCC3(CCN(c4ccc([C@@H]5c6ccc(O)cc6CC[C@@H]5c5ccccc5)cc4)CC3)OC2)CC1 [Compound A235, (S)-3-(1′-(((R)-9-(4-((1R,2S)-6-hydroxy-2-phenyl-1,2,3,4-tetrahydronaphthalen-1-yl)phenyl)-1-oxa-9-azaspiro[5.5]undecan-3-yl)methyl)-5-methoxy-6-oxo-6,8-dihydro-2H,7H-spiro[furo[2,3-e]isoindole-3,4′-piperidin]-7-yl)piperidine-2,6-dione] | > 8.00 | – | – | – | < 1 | – | > 75
COc1cc2c(c3c1C(=O)N([C@H]1CCC(=O)NC1=O)C3)OCC21CCN(C[C@@H]2CCC3(CCN(c4ccc([C@@H]5c6ccc(O)cc6CC[C@@H]5c5ccccc5)cc4)CC3)OC2)CC1 [Compound A236, (S)-3-(1′-(((S)-9-(4-((1R,2S)-6-hydroxy-2-phenyl-1,2,3,4-tetrahydronaphthalen-1-yl)phenyl)-1-oxa-9-azaspiro[5.5]undecan-3-yl)methyl)-5-methoxy-6-oxo-6,8-dihydro-2H,7H-spiro[furo[2,3-e]isoindole-3,4′-piperidin]-7-yl)piperidine-2,6-dione] | 7.00 to 8.00 | – | – | – | < 1 | – | > 75
